Results taken from patent publication USRE43390E1, “Pleuromutilin derivatives as antimicrobials” (GlaxoSmithKline LLC, priority 1997, dated 2012).

Tests used:
Experiment in all cases: antibacterial activity, MIC by standard broth dilution method in microtitre
Format in all cases: cell-based
Escherichla coli DCU = settings: E.c. = Escherichla coli DCU
Protocol: (§1) The following Table illustrates the antibacterial activities of representative mutilin 14-esters. Activities are given as minimum inhibitory concentrations in micrograms per milliliter (10^−6 g/ml), and were determined using a standard broth dilution method in microtitre.

[1] = system: Haemophilius influenzae Q1; settings: H.i. = Haemophilius influenzae Q1
Protocol: as §1

[2] = system: Morazella catarrhalis Ravasio; settings: M.c. = Morazella catarrhalis Ravasio
Protocol: as §1

[3] = system: Staphylococcus aureus Oxford; settings: S.a. = Staphylococcus aureus Oxford
Protocol: as §1

[4] = system: Streptococcus pneumoniae 1629; settings: S.p. = Streptococcus pneumoniae 1629
Protocol: as §1

Compound | minimum inhibitory concentrations (Escherichla coli DCU) [micrograms per milliliter] | minimum inhibitory concentrations [1] [micrograms per milliliter] | minimum inhibitory concentrations [2] | minimum inhibitory concentrations [3] | minimum inhibitory concentrations [4]
C=C[C@]1(C)C[C@@H](OC(=O)CSC23CCN(CC2)CC3)[C@]2(C)[C@H](C)CC[C@]3(CCC(=O)[C@H]32)[C@@H](C)[C@@H]1O [Example 1, Mutilin 14-(quinuclidin-4-yl-sulfanyl)-acetate] | 16 | 0.25 | ≦0.06 micrograms per milliliter | ≦0.06 micrograms per milliliter | ≦0.06 micrograms per milliliter
C=C[C@]1(C)C[C@@H](OC(=O)CO)[C@]2(C)[C@H](C)CC[C@]3(CCC(=O)[C@H]32)[C@@H](C)[C@@H]1O [Pleuomutilin, Pleuromutilin] | >64 | 2 | 0.5 micrograms per milliliter | 2 micrograms per milliliter | 8 micrograms per milliliter
C=C[C@]1(C)C[C@@H](OC(=O)CSCCN(CC)CC)[C@]2(C)[C@H](C)CC[C@]3(CCC(=O)[C@H]32)[C@@H](C)[C@@H]1O [Tiamulia, Tiamulin, reference compound] | >64 | 2 | 0.125 micrograms per milliliter | 0.25 micrograms per milliliter | 0.25 micrograms per milliliter
C=C[C@]1(C)C[C@@H](OC(=O)CSC2CC3CCC(C2)N3C)[C@]2(C)C(C)CC[C@]3(CCC(=O)[C@H]32)[C@@H](C)[C@@H]1O (stereo partly drawn) [Example 50, Mutilin 14-(exo-8-methyl-8-azabicyclo[3.2.1]oct-3-ylsulfanyl)-acetate] | 32 | 0.5 | ≦0.06 micrograms per milliliter | ≦0.06 micrograms per milliliter | ≦0.06 micrograms per milliliter
C=C[C@]1(C)C[C@@H](OC(=O)CSC2CCN(C)CC2)[C@]2(C)[C@H](C)CC[C@]3(CCC(=O)[C@H]32)[C@@H](C)[C@@H]1O [Example 15, Mutilin-14-(1-methylpiperid-4-ylsulfanyl)-acetate] | 64 | 0.5 | ≦0.06 micrograms per milliliter | ≦0.06 micrograms per milliliter | ≦0.06 micrograms per milliliter
